Test results from US11931569B2, “Method for changing blood brain barrier permeability” (TEL HASHOMER MEDICAL RESEARCH, INFRASTRUCTURE AND SERVICES …, priority 2018, dated 2024).

Legend:
[1] = tested on: in vitro BBB model (CD34+-derived ECs co-cultured with bovine brain pericytes on Transwell inserts); format: in vitro ADME, human
Procedure: Reference is made to FIG. 2A that schematically illustrates an in vitro BBB model 100 grown in Transwell inserts 200 (3401-Costar, Corning, USA). The in vitro human BBB model was generated as follows: CD34^+-derived ECs 250 were seeded onto matrigel-coated (BD Biosciences, USA) apical side 206 of a Transwell insert membrane 204. Primary bovine brain pericytes 252 were seeded on the gelatin-coated basolateral side 208 of the same Transwell inserts 2-24 h before the seeding of the ECs. […]
PEFs were applied to Transwell inserts 200 using an electroporator power supply (BTX 830; Harvard Apparatus, Holliston, MA). […] Given the parameters of the electrode and based on a finite elements model of the described system, the EF generated between the electrodes by the applied voltage can be approximated as uniform across the ECs monolayer and can be calculated by dividing the Voltage by the electrodes distance. […]
50 μl of a solution containing 0.5 mg/ml NaF in PBS was added to the luminal (apical) side of each Transwell insert 200 one minute prior to PEFs application. […] A sample of medium 102 collected from under basolateral side 208 was collected and the samples' fluorescence was measured using TECAN pro200 plate reader (485/538 nm excitation/emission). […]

CNS-1 glioma cell line = experiment: efficacy of Paclitaxel across the in vitro BBB model after PEF application (glioma confluency); format: cell-based; settings: 200 nM Paclitaxel on apical side, 2 h with insert, followed 3 days
Procedure: Reference is made to FIG. 5A. To study the effect of PEFs application on BBB permeability for Paclitaxel (Taxol®), the in vitro BBB model 100 as shown FIG. 2A was modified by seeding a CNS-1 glioma cell line 254 on a bottom surface 103 of cell culture well 101 (40,000 cells per well), into which the BLEC co-culture system grown on membrane 204 of Transwell insert 200 was also grown. When the glioma cell line was at about 16±0.5% confluency, 200 nM Paclitaxel was added into ECM media 102 in the apical side of Transwell insert 200 and PEFs were applied at one of various settings, then incubated for 2 hours after which time the Transwell insert was removed. […] Glioma cell line 254 was then further incubated for three days and the level of confluency was measured at 2 hours, 1 day, 2 days, and 3 days following Paclitaxel administration.
The results as shown by way of example in FIG. 5B indicate that low pulse-count, low frequency, low EF strength PEFs induce sufficient BBB disruption to allow a therapeutic dose of Paclitaxel to traverse the in vitro BBB model and reach the glioma cell line.

Compound	increase in permeability [1]	glioma cell growth / confluency (CNS-1 glioma cell line; 10 pulses, 74 V/cm, 1 Hz)	glioma cell growth / confluency (CNS-1 glioma cell line; 20 pulses, 30 V/cm, 1 Hz)	glioma cell growth / confluency (CNS-1 glioma cell line; 99 pulses, 30 V/cm, 1 Hz)	glioma cell growth / confluency (CNS-1 glioma cell line; control, no PEF application)
O=C([O-])c1ccccc1-c1c2ccc(=O)cc-2oc2cc([O-])ccc12.[Na+].[Na+] [NaF, sodium fluorescein]	40±9%				
CC(=O)O[C@H]1C(=O)[C@@]2(C)[C@H]([C@H](OC(=O)c3ccccc3)[C@]3(O)C[C@H](OC(=O)[C@H](O)[C@@H](NC(=O)c4ccccc4)c4ccccc4)C(C)=C1C3(C)C)[C@]1(OC(C)=O)CO[C@@H]1C[C@@H]2O [Paclitaxel]		substantially disrupt its growth	glioma growth was not significantly retarded	level of retardation of glioma growth was equivalent to application of 10 pulses of PEFs at a field strength of 74 V/cm	reach full confluency after 3 days
